Laboratory results: patent US20050238589A1, “Methods and compositions for preventing or treating periodontal diseases” (priority 2004, published 2005)

How the values were obtained:
[1] = tested on: PGE2 generation from gingival homogenates; settings: ElAttar et al. 1984; cited from earlier work
[2] = tested on: COX-derived eicosanoids in crevicular fluid; settings: cited from earlier work
CF-PGE2 levels = settings: in humans; cited from earlier work
[3] = tested on: P. gingivalis and ligature-induced experimental periodontitis; test: Histological analysis (HE) in rabbit experimental periodontitis; assay type: in vivo, New Zealand White rabbits; settings: topical application; rabbits with P. gingivalis and ligature placement
[4] = tested on: P. gingivalis and ligature-induced experimental periodontitis; test: Radiographic analysis (Bjorn technique) in rabbit experimental periodontitis; assay type: in vivo, New Zealand White rabbits
[5] = tested on: P. gingivalis and ligature-induced experimental periodontitis; test: Morphometric analysis of mandibles in rabbit experimental periodontitis; assay type: in vivo, New Zealand White rabbits; settings: topical resolvin E1 before P. gingivalis application, every other day for 6 weeks; versus vehicle (ethanol)
[6] = p<0.05 for vehicle group compared to resolvin E1 or ligature alone

Compound	PGE2 generation from gingival homogenates [1]	CF-PGE2 levels, gingival inflammation, tooth attachment loss and bone loss ([2]; Pauletto et al. 1997, in some cases bone gain)	COX-derived eicosanoids in crevicular fluid (CF) ([2]; animals taking flurbiprofen)	CF-PGE2 levels (CF-PGE2 levels)	bone loss, histology (FIG. 6) [3]	inflammatory changes, histology (FIG. 6) [3]	percentage of bone loss calculated by the Bjorn technique (FIG. 5) [4, 6]	percentage of tooth in bone measured on radiographs (FIG. 4) [4, 6]	bone loss, radiographic appearance of alveolar bone (FIG. 3) ([4]; topical application, bone at the same level as ligature alone)	bone destruction (defleshed bone specimens, FIG. 1) [5]	gingival inflammation (gingival tissue of mandibles, FIG. 1) [5]
CC(C(=O)O)c1ccc(-c2ccccc2)c(F)c1 (centres unmarked) [flurbiprofen]	significantly inhibited	reduced	decreased	dramatically decreased							
CC[C@@H](O)/C=C/C=C\C[C@@H](O)/C=C/C=C/C=C\[C@@H](O)CCCC(=O)O [resolvin E1]					prevented	prevented	prevents the destructive effects	maintenance of bone levels	prevented the bone loss	prevented	prevented
